From patent US20210246019A1, “PEPTIDE/LIPID-ASSOCIATED NUCLEIC ACIDS (PLANA) FOR NUCLEIC ACID DELIVERY” (priority 2020, published 2021)

Tested on: hCoV-229E
Assay: microbe, parasite or virus in culture
Settings: Human coronavirus 229E, MRC5, read-out: cell viability

CCC(CC)COC(=O)[C@H](C)N[P@](=O)(OC[C@H]1O[C@@](C#N)(c2ccc3c(N)ncnn23)[C@H](O)[C@@H]1O)Oc1ccccc1 [remdesivir]
viability at 5 µM: 92%
